Patent publication US11274093B2, “Fused bicyclic benzoheteroaromatic compounds and methods of use thereof” (Araxes Pharma LLC, priority 2017, dated 2022)

Each compound was assayed against T1, KRAS G12C 1-169, his-tagged protein, GDP-loaded (Homo sapiens, UniProt P01116, G12C) (assay: Biochemical assay: covalent binding to KRAS G12C measured by mass spectrometry). Details: covalently bind to KRAS G12C, after a thirty minute incubation period.
T1 construct: KRAS G12C 1-169, his-tagged protein, GDP-loaded
Description: Test compounds were prepared as 10 mM stock solutions in DMSO (Fisher cat #BP-231-100). KRAS G12C 1-169, his-tagged protein, GDP-loaded was diluted to 0.5 μM in buffer (20 mM Hepes, 150 mM NaCl, 1 mM MgCl2). Compounds were tested for activity as follows:
Compounds were diluted to 50× final test concentration in DMSO in 96-well storage plates. Compound stock solutions were vortexed before use and observed carefully for any sign of precipitation. Dilutions were as follow: • For 100 μM final compound concentration, compounds were diluted to 5000 μM (5 μL 10 mM compound stock+5 μL DMSO and mixed well by pipetting. • For 30 μM final compound concentration, compounds were diluted to 1500 μM (3 μL 10 mM compound stock+17 μL DMSO) and mixed well by pipetting. • For 10 μM final compound concentration, compounds were diluted to 500 μM (2 μL 10 mM compound stock+38 μL DMSO) and mixed well by pipetting. 49 μL of the stock protein solution was added to each well of a 96-well PCR plate (Fisher cat #1423027). 1 μl of the diluted 50× compounds were added to appropriate wells in the PCR plate using 12-channel pipettor. Reactions were mixed carefully and thoroughly by pipetting up/down with a 200 μL multi-channel pipettor. The plate was sealed well with aluminum plate seal, and stored in drawer at room temperature for 10 minutes, 30 minutes, 2 hours or 24 hours. 5 μL of 2% formic acid (Fisher cat #A117) in de-ionized H2O was then added to each well followed by mixing with a pipette. The plate was then resealed with aluminum seal and stored on dry ice until analyzed as described below.
The above described assays were analyzed by mass spectrometry according to one of the following two procedures:
The MS instrument is set to positive polarity, 2 GHz resolution, and low mass (1700) mode and allowed to equilibrate for 30 minutes. The instrument is then calibrated, switched to acquisition mode and the appropriate method loaded.
After another 30 minute equilibration time, a blank batch (i.e., buffer) is run to ensure equipment is operating properly. The samples are thawed at 37° C. for 10 minutes, briefly centrifuged, and transfer to the bench top. Wells A1 and H12 are spiked with 1 μL 500 μM internal standard peptide, and the plates centrifuged at 2000×g for 5 minutes. The method is then run and masses of each individual well recorded.
The masses (for which integration data is desired) for each well are pasted into the platemap and exported from the analysis. Masses for the internal standards are exported as well. The data at 50 ppm is extracted for the +19 charge state, and identity of well A1 is assigned using the internal standard spike and integrated. Peak data is exported as a TOF list and the above steps are repeated individually, for the +20, 21, 22, 23, 24, and 25 charge states.
The masses and peak intensities of KRAS G12C protein species were measured using a Dionex RSLCnano system (Thermo Scientific) connected to a Q Exactive Plus mass spectrometer (Thermo Scientific).
[…] of sample was each loaded onto a Aeris™ […] WIDEPORE C4 200 Å, LC Column 50×2.1 mm column maintained at 40° C. at a flow rate of 600 μL/min with […] (0.1% formic acid in acetonitrile). The liquid chromatography conditions were 20% solvent B for 1 minute, 20% to 60% solvent B for 1.5 minutes, 60% to 90% solvent for 0.5 minute, 90% solvent B for 0.2 minute, 90% to 20% solvent B for 0.2 minute, and then equilibrated for 1.6 minute before the following sample injection. The flow rate was maintained at 600 μL/min throughout the sample analysis.
The mass spectrometer was operated in profile mode at a resolution of 17500, 5 microscans, using 50 msec max injection time and an AGC target of 1×10^6, and a full mass range from 800-1850 m/z was recorded. The HCD trapping gas was optimized for maximum sensitivity for intact proteins. […]
In the case of C=CC(=O)N1CC(Nc2cncc3c(-c4c(C)ccc5[nH]ncc45)cccc23)C1 [Compound 26, 1-(3-((8-(5-methyl-1H-indazol-4-yl)isoquinolin-4-yl)amino)azetidin-1-yl)prop-2-en-1-one], the Binding % is reported as “++ (++ indicates binding activity of 5% or more)”.
With C=CC(=O)N1CCC(Nc2cnnc3c(-c4cc(O)cc5ccccc45)cccc23)C1 (centres unmarked) [Compound 22] the Binding % was “+ (+ indicates binding activity up to 5%)”.
For C=CC(=O)N1CC(Nc2cnnc3c(-c4cc(O)cc5ccccc45)cccc23)C1 [Compound 18, 1-(3-((8-(3-hydroxynaphthalen-1-yl)cinnolin-4-yl)amino)azetidin-1-yl)prop-2-en-1-one], the Binding % was “++ (++ indicates binding activity of 5% or more)”.
C=CC(=O)N1CCC(Nc2cnnc3c(-c4c(C)ccc5[nH]ncc45)cccc23)C1 (centres unmarked) [Compound 23, 1-(3-((8-(5-methyl-1H-indazol-4-yl)cinnolin-4-yl)amino)pyrrolidin-1-yl)prop-2-en-1-one] was tested, and the Binding % was “+ (+ indicates binding activity up to 5%)”.
For C=CC(=O)N1CCN(c2cnnc3c(-c4cc(O)cc5ccccc45)cccc23)CC1 [Compound 20, 1-(4-(8-(3-hydroxynaphthalen-1-yl)cinnolin-4-yl)piperazin-1-yl)prop-2-en-1-one], the Binding % was “++ (++ indicates binding activity of 5% or more)”.
C=CC(=O)N1CC(Nc2cncc3c(-c4cc(O)cc5ccccc45)ccnc23)C1 [Compound 24, 1-(3-((4-(3-hydroxynaphthalen-1-yl)-1,6-naphthyridin-8-yl)amino)azetidin-1-yl)prop-2-en-1-one] was tested, and the Binding % was “++ (++ indicates binding activity of 5% or more)”.
With C=CC(=O)N1CC(Nc2cncc3c(-c4cc(O)cc5ccccc45)cccc23)C1 [Compound 25, 1-(3-((8-(3-hydroxynaphthalen-1-yl)isoquinolin-4-yl)amino)azetidin-1-yl)prop-2-en-1-one] the Binding % was “++ (++ indicates binding activity of 5% or more)”.
In the case of C=CC(=O)N1CCN(c2cnnc3c(-c4c(C)ccc5[nH]ncc45)cccc23)CC1 [Compound 19, 1-(4-(8-(5-methyl-1H-indazol-4-yl)cinnolin-4-yl)piperazin-1-yl)prop-2-en-1-one], the Binding % is reported as “+ (+ indicates binding activity up to 5%)”.
C=CC(=O)N1CCCC(Nc2cnnc3c(-c4c(C)ccc5[nH]ncc45)cccc23)C1 (centres unmarked) [Compound 21, 1-(3-((8-(5-methyl-1H-indazol-4-yl)cinnolin-4-yl)amino)piperidin-1-yl)prop-2-en-1-one] was tested, and the Binding % was “+ (+ indicates binding activity up to 5%)”.
For C=CC(=O)N1CC(Nc2ncnc3c(-c4cc(O)cc5ccccc45)cccc23)C1 [Compound 2, 1-(3-((8-(3-hydroxynaphthalen-1-yl)quinazolin-4-yl)amino)azetidin-1-yl)prop-2-en-1-one], the Binding % was “++ (++ indicates binding activity of 5% or more)”.
For C=CC(=O)N1CC(Nc2ncnc3c(-c4c(C)ccc5[nH]ncc45)cccc23)C1 [Compound 1, 1-(3-((8-(5-methyl-1H-indazol-4-yl)quinazolin-4-yl)amino)azetidin-1-yl)prop-2-en-1-one], the Binding % was “+ (+ indicates binding activity up to 5%)”.
